Measured values taken from patent US6544540B2, “Base-triggered release microcapsules” (priority 1998, dated 2003).

Key:
Heliothis virescens = assay: Test 1 B. Foliar Persistence, neonate larvae on disks of sprayed detached cotton leaves, mortality; type: in vivo; conditions: cotton leaf disks
Lygus hesperus = assay: Test 1 A. Contact/Residue Contact, adult bugs in cages sprayed, mortality; type: in vivo
Text: Lygus hesperius was the subject in this test. Adult bugs in cages were sprayed at 250 l/h. There were four replicates of 10 insects for 5 rates of each formulation. Mortality assessments were made at 1, 2, 3, 4, 5, and 6 DAT.

## CCOP(=S)(OCC)Oc1nc(Cl)c(Cl)cc1Cl [Chlorpyrifos technical, chlorpyrifos]
Heliothis virescens; Total over 1-3 DAT
  LC50 Total: 10.2 ppm
Heliothis virescens; mortality at 1 DAT
  LC50 1DAT: 9.8 ppm
Heliothis virescens; mortality at 2 DAT
  LC50 2DAT: 8.6 ppm
Heliothis virescens; mortality at 3 DAT
  LC50 3DAT: 12.2 ppm
Lygus hesperus; mortality at 1 DAT, sprayed at 250 l/h
  LC50 1DAT: 313 ppm
Lygus hesperus; mortality at 2 DAT, sprayed at 250 l/h
  LC50 2DAT: 310 ppm
Lygus hesperus; mortality at 3 DAT, sprayed at 250 l/h
  LC50 3DAT: 311 ppm
Lygus hesperus; mortality at 4 DAT, sprayed at 250 l/h
  LC50 4DAT: 313 ppm
Lygus hesperus; mortality at 5 DAT, sprayed at 250 l/h
  LC50 5DAT: 313 ppm
Lygus hesperus; mortality at 6 DAT, sprayed at 250 l/h
  LC50 6DAT: 325 ppm
Lygus hesperus; previous test results, Lygus hesperus contact/residue contact
  LC50: ~300 ppm
